According to the supplement of paper PMC10307832:

How the values were obtained:
Assay in all cases: relative viability (nuclei count vs DMSO), 5 days (fraction); higher = more cells survive
Bleomycin + Decitabine = compound: CC1=C(N=C(N=C1N)[C@H](CC(=O)N)NC[C@@H](C(=O)N)N)C(=O)N[C@@H]([C@H](C2=CN=CN2)OC3C(C(C(C(O3)CO)O)O)OC4C(C(C(C(O4)CO)O)OC(=O)N)O)C(=O)N[C@H](C)[C@H]([C@H](C)C(=O)N[C@@H]([C@@H](C)O)C(=O)NCCC5=NC(=CS5)C6=NC(=CS6)C(=O)NCCC[S+](C)C)O [Bleomycin] + Nc1ncn([C@H]2C[C@H](O)[C@@H](CO)O2)c(=O)n1 [Decitabine] (partner 2 µM); conditions: main component drawn
Outline: (§1)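 Lung cancer cell lines in 1536-well plates got either a single drug or a fixed anchor-drug dose together with five library-drug doses (not always all listed) in √10 steps, by pin tool, on the day after seeding. Nuclei were counted after 5 days, and relative viability is the treated-to-vehicle ratio of nuclei counts. Values are medians of duplicate plates.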

Etoposide + AZD7762 = compound: COc1cc([C@@H]2c3cc4c(cc3[C@@H](O[C@@H]3O[C@@H]5CO[C@@H](C)O[C@H]5[C@H](O)[C@H]3O)[C@H]3COC(=O)[C@H]23)OCO4)cc(OC)c1O [Etoposide] + NC(=O)Nc1cc(-c2cccc(F)c2)sc1C(=O)N[C@H]1CCCNC1 [AZD7762] (partner 0.2 µM)
Outline: as §1

Etoposide + Trametinib = compound: COc1cc([C@@H]2c3cc4c(cc3[C@@H](O[C@@H]3O[C@@H]5CO[C@@H](C)O[C@H]5[C@H](O)[C@H]3O)[C@H]3COC(=O)[C@H]23)OCO4)cc(OC)c1O [Etoposide] + CC(=O)Nc1cccc(-n2c(=O)n(C3CC3)c(=O)c3c(Nc4ccc(I)cc4F)n(C)c(=O)c(C)c32)c1 [Trametinib] (partner 0.02 µM)
Outline: as §1

Bleomycin + Pictilisib = compound: CC1=C(N=C(N=C1N)[C@H](CC(=O)N)NC[C@@H](C(=O)N)N)C(=O)N[C@@H]([C@H](C2=CN=CN2)OC3C(C(C(C(O3)CO)O)O)OC4C(C(C(C(O4)CO)O)OC(=O)N)O)C(=O)N[C@H](C)[C@H]([C@H](C)C(=O)N[C@@H]([C@@H](C)O)C(=O)NCCC5=NC(=CS5)C6=NC(=CS6)C(=O)NCCC[S+](C)C)O [Bleomycin] + CS(=O)(=O)N1CCN(Cc2cc3nc(-c4cccc5[nH]ncc45)nc(N4CCOCC4)c3s2)CC1 [Pictilisib] (partner 1 µM); conditions: main component drawn
Outline: as §1

| Cell Line | relative viability (Bleomycin + Decitabine; first compound 0.01 µM) | relative viability (Bleomycin + Decitabine; first compound 0.03162 µM) | relative viability (Bleomycin + Decitabine; first compound 0.1 µM) | relative viability (Bleomycin + Decitabine; first compound 0.3162 µM) | relative viability (Bleomycin + Decitabine; first compound 1 µM) | relative viability (Etoposide + AZD7762; first compound 0.01 µM) | relative viability (Etoposide + AZD7762; first compound 0.03162 µM) | relative viability (Etoposide + AZD7762; first compound 0.1 µM) | relative viability (Etoposide + AZD7762; first compound 0.3162 µM) | relative viability (Etoposide + AZD7762; first compound 1 µM) | relative viability (Etoposide + Trametinib; first compound 0.01 µM) | relative viability (Etoposide + Trametinib; first compound 0.03162 µM) | relative viability (Etoposide + Trametinib; first compound 0.1 µM) | relative viability (Etoposide + Trametinib; first compound 0.3162 µM) | relative viability (Etoposide + Trametinib; first compound 1 µM) | relative viability (Bleomycin + Pictilisib; first compound 0.01 µM) | relative viability (Bleomycin + Pictilisib; first compound 0.03162 µM) | relative viability (Bleomycin + Pictilisib; first compound 0.1 µM) | relative viability (Bleomycin + Pictilisib; first compound 0.3162 µM) | relative viability (Bleomycin + Pictilisib; first compound 1 µM) |
| --- | --- | --- | --- | --- | --- | --- | --- | --- | --- | --- | --- | --- | --- | --- | --- | --- | --- | --- | --- | --- |
| 201T | 0.839 | 0.816 | 0.677 | 0.735 | 0.561 | 0.612 | 0.751 | 0.47 | 0.492 | 0.37 | 0.73 | 0.76 | 0.707 | 0.602 | 0.544 | 0.686 | 0.59 | 0.622 | 0.634 | 0.512 |
| A549 | 0.234 | 0.137 | 0.218 | 0.0867 | 0.0646 | – | – | – | – | – | – | – | – | – | – | 0.4 | 0.389 | 0.323 | 0.0899 | 0.0479 |
| A-427 | 0.429 | 0.495 | 0.406 | 0.29 | 0.266 | 0.713 | 0.741 | 0.569 | 0.473 | 0.286 | 0.695 | 0.812 | 0.621 | 0.47 | 0.296 | 0.58 | 0.488 | 0.492 | 0.155 | 0.174 |
| ABC-1 | 0.911 | 0.837 | 1.01 | 0.803 | 0.591 | 0.978 | 0.851 | 0.468 | 0.425 | 0.369 | – | – | – | – | – | 0.68 | 0.689 | 0.719 | 0.333 | 0.286 |
| BEN | 0.719 | 0.745 | 0.685 | 0.607 | 0.542 | 0.828 | 0.818 | – | 0.665 | 0.606 | 0.919 | 1.01 | – | 1.05 | 0.852 | 0.573 | 0.57 | 0.54 | 0.389 | 0.435 |
| CAL-12T | – | – | – | – | – | 0.567 | 0.792 | 0.613 | 0.477 | 0.409 | 0.238 | 0.43 | 0.241 | 0.367 | 0.211 | – | 0.588 | 0.394 | 0.207 | 0.236 |
| COR-L23 | 0.378 | 0.407 | 0.287 | 0.188 | 0.147 | – | – | – | – | – | 0.578 | 0.666 | 0.348 | 0.488 | 0.233 | 0.705 | 0.7 | 0.433 | 0.129 | 0.0958 |
| COR-L 105 | 0.594 | 0.588 | 0.519 | 0.419 | 0.371 | – | – | – | – | – | 0.443 | 0.479 | 0.439 | 0.437 | 0.398 | 0.412 | 0.43 | 0.406 | 0.278 | 0.276 |
| Calu-6 | – | – | – | – | – | – | – | – | – | – | – | – | – | – | – | 0.575 | 0.537 | 0.385 | 0.179 | 0.177 |
| ChaGo-K-1 | 0.492 | 0.506 | 0.476 | 0.433 | 0.364 | 0.859 | 0.863 | 0.863 | 0.69 | 0.302 | 0.881 | 0.905 | 0.752 | 0.394 | 0.248 | – | 0.728 | 0.655 | 0.406 | 0.217 |
| EBC-1 | – | – | – | – | – | – | – | – | – | – | – | – | – | – | – | 0.359 | 0.376 | 0.346 | 0.272 | 0.283 |
| EKVX | 0.311 | 0.323 | 0.279 | 0.215 | 0.215 | 0.759 | 0.818 | 0.268 | 0.344 | 0.272 | 0.287 | 0.382 | 0.303 | 0.295 | 0.169 | 0.422 | 0.39 | 0.376 | 0.212 | 0.189 |
| EMC-BAC-2 | – | 0.712 | 0.538 | 0.342 | 0.328 | 1.06 | 1.11 | 0.688 | 0.639 | 0.334 | 0.818 | 0.774 | 0.531 | 0.364 | 0.308 | 0.498 | 0.489 | 0.427 | 0.282 | 0.222 |
| EPLC-272H | 0.358 | 0.343 | 0.301 | 0.171 | 0.129 | 0.272 | 0.269 | 0.183 | 0.182 | 0.0802 | 0.33 | 0.284 | 0.254 | 0.267 | 0.267 | 0.288 | 0.352 | 0.265 | 0.137 | 0.161 |
| H3255 | 0.582 | 0.631 | 0.586 | 0.414 | 0.342 | 0.949 | 0.95 | 0.726 | 0.66 | 0.668 | 0.578 | 0.707 | 0.411 | 0.57 | 0.347 | 0.442 | 0.414 | 0.431 | 0.287 | 0.276 |
| HARA | 0.513 | 0.534 | 0.473 | 0.313 | 0.335 | 0.436 | 0.347 | 0.236 | 0.301 | 0.291 | 0.628 | 0.638 | 1.01 | 0.592 | 0.353 | 0.333 | 0.557 | 0.428 | 0.27 | 0.184 |
| HCC-15 | 0.591 | 0.639 | 0.543 | 0.336 | 0.276 | 1.2 | 1.34 | 1.32 | 1.01 | 0.777 | 0.35 | 0.469 | 0.34 | 0.287 | 0.192 | 0.685 | 0.693 | 0.627 | 0.199 | 0.219 |
